Reference: patent US11572369B2, “Bicyclic pyridine compositions and methods of using the same for cancer therapy” (UNIVERSITY OF SOUTH CAROLINA, priority 2019, dated 2023)

Columns and labels:
Experiment in all cases: KINOMEscan
Type in all cases: binding
Details in all cases: 2000 nM
[1] = target: ABL1(F317L)-phosphorylated (Homo sapiens, UniProt P00519, F317L)
ABL2 = target: T1, ABL2 (Homo sapiens, UniProt P42684)
T1 construct: purchased DiscoveRx (KINOMEscan scanMAX panel, service)

AKT2 = target: T2, AKT2 (Homo sapiens, UniProt P31751)
T2 construct: purchased DiscoveRx (KINOMEscan scanMAX panel, service)

ALK(C1156Y) = target: T3, ALK(C1156Y) (Homo sapiens, UniProt Q9UM73, C1156Y)
T3 construct: DNA label (qPCR read-out); purchased KINOMEscan scanMAX panel (DiscoveRx)

ASK2 = target: T4, ASK2 (Homo sapiens, UniProt O95382)
T4 construct: DNA label (qPCR read-out); purchased KINOMEscan scanMAX panel (DiscoveRx)

CDC2L1 = target: T5, CDC2L1 (Homo sapiens, UniProt P21127)
T5 construct: DNA label (qPCR read-out); purchased KINOMEscan (ScanMAX panel service)

CHEK1 = target: T6, CHEK1 (Homo sapiens, UniProt O14757)
T6 construct: DNA label (for qPCR read-out); purchased DiscoveRx (KINOMEscan scanMAX service)

CLK3 = target: T7, CLK3 (Homo sapiens, UniProt P49761)
T7 construct: DNA label (for qPCR read-out); purchased DiscoveRx (KINOMEscan scanMAX service)

CSNK1A1L = target: T8, CSNK1A1L (Homo sapiens, UniProt Q8N752)
T8 construct: DNA label; purchased DiscoveRx (KINOMEscan scanMAX panel)

CSNK1E = target: T9, CSNK1E (Homo sapiens, UniProt P49674)
T9 construct: DNA label (qPCR read-out); purchased DiscoverX (assay service)

DCAMKL1 = target: T10, DCAMKL1 (Homo sapiens, UniProt O15075)
T10 construct: DNA label (qPCR read-out); purchased KINOMEscan (DiscoveRx) panel

DRAK2 = target: T11, DRAK2 (Homo sapiens, UniProt O94768)
T11 construct: DNA label (qPCR read-out); purchased KINOMEscan (DiscoveRx) panel

EGFR = target: T12, EGFR (Homo sapiens, UniProt P00533)
T12 construct: purchased DiscoveRx (KINOMEscan scanMAX panel)

EGFR(L861Q) = target: T13, EGFR(L861Q) (Homo sapiens, UniProt P00533, L861Q)
T13 construct: purchased DiscoveRx (KINOMEscan scanMAX panel)

EPHA4 = target: T14, EPHA4 (Homo sapiens, UniProt P54764)
T14 construct: purchased DiscoveRx (KINOMEscan scanMAX panel)

EPHA7 = target: T15, EPHA7 (Homo sapiens, UniProt Q15375)
T15 construct: purchased DiscoveRx (KINOMEscan scanMAX panel)

FLT3(K663Q) = target: T16, FLT3(K663Q) (Homo sapiens, UniProt P36888, K663Q)
T16 construct: purchased KINOMEscan (DiscoveRx)

GCN2(Kin.Dom.2, S808G) = target: T17, GCN2(Kin.Dom.2, S808G) (Homo sapiens, UniProt Q9P2K8, S808G)
T17 construct: GCN2(Kin.Dom.2, S808G); purchased KINOMEscan (DiscoveRx)

KIT(V559D, T670I) = target: T18, KIT(V559D, T670I) (Homo sapiens, UniProt P10721, T670I/V559D)
T18 construct: purchased KINOMEscan (DiscoveRx) panel service

LRRK2(G2019S) = target: T19, LRRK2(G2019S) (Homo sapiens, UniProt Q5S007, G2019S)
T19 construct: purchased KINOMEscan (DiscoveRx) panel service

MAPKAPK2 = MAPKAPK2 (Homo sapiens, UniProt P49137)
MARK2 = MARK2 (Homo sapiens, UniProt Q7KZI7)
MERTK = target: T20, MERTK (Homo sapiens, UniProt Q12866)
T20 construct: purchased DiscoveRx (KINOMEscan scanMAX panel, service)

MYLK4 = target: T21, MYLK4 (Homo sapiens, UniProt Q86YV6)
T21 construct: DNA label (for qPCR read-out); purchased KINOMEscan scanMAX panel (DiscoveRx)

NEK10 = target: T22, NEK10 (Homo sapiens, UniProt Q6ZWH5)
T22 construct: DNA label (qPCR read-out); purchased KINOMEscan (ScanMAX panel service)

NEK4 = target: T23, NEK4 (Homo sapiens, UniProt P51957)
T23 construct: DNA label (qPCR read-out); purchased KINOMEscan (ScanMAX panel service)

p38-beta = target: T24, p38-beta (Homo sapiens, UniProt Q15759)
T24 construct: purchased DiscoverX (KINOMEscan service)

PIK3CA(Q546K) = target: T25, PIK3CA(Q546K) (Homo sapiens, UniProt P42336, Q546K)
T25 construct: DNA label; purchased DiscoveRx (KINOMEscan scanMAX panel)

PIM2 = target: T26, PIM2 (Homo sapiens, UniProt Q9P1W9)
T26 construct: DNA label (qPCR read-out); purchased KINOMEscan (DiscoveRx) panel

PKMYT1 = target: T27, PKMYT1 (Homo sapiens, UniProt Q99640)
T27 construct: DNA label (qPCR read-out); purchased KINOMEscan (DiscoveRx) panel

[2] = target: T28, RPS6KA4(Kin.Dom.2-C-terminal) (Homo sapiens, UniProt O75676)
T28 construct: Kin.Dom.2; DNA label (qPCR read-out); purchased DiscoveRx (KINOMEscan ScanMAX panel)

TLK1 = target: T29, TLK1 (Homo sapiens, UniProt Q9UKI8)
T29 construct: DNA label (qPCR read-out); purchased KINOMEscan (DiscoveRx) ScanMAX panel

TNK1 = target: T30, TNK1 (Homo sapiens, UniProt Q13470)
T30 construct: DNA label (qPCR read-out); purchased KINOMEscan (DiscoveRx) ScanMAX panel

TYRO3 = target: T31, TYRO3 (Homo sapiens, UniProt Q06418)
T31 construct: DNA label (for qPCR read-out); purchased DiscoveRx (KINOMEscan scanMAX panel)

Sequence of MARK2 (Q7KZI7 whole entry): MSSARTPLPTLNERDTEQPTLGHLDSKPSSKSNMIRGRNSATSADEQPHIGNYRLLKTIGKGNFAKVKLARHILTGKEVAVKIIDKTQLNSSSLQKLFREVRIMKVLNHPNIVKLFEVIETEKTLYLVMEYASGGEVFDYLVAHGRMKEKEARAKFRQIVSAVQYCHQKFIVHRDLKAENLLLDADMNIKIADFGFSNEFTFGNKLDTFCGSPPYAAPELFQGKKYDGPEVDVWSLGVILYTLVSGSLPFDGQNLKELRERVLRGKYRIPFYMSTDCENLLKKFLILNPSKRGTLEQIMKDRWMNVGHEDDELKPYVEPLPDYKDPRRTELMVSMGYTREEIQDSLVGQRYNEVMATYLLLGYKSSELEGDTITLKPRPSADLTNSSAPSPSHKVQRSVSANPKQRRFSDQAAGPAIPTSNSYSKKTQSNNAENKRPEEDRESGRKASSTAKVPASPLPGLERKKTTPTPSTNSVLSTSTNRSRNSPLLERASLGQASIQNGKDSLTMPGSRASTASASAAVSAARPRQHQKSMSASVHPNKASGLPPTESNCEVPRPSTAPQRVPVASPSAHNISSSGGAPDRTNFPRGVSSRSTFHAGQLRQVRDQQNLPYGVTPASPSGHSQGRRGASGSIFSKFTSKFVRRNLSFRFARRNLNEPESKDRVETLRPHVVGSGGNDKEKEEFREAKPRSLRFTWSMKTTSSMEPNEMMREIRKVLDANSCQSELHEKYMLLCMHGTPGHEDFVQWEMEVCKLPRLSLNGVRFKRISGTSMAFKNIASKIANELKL
T26 sequence (Q9P1W9 whole entry): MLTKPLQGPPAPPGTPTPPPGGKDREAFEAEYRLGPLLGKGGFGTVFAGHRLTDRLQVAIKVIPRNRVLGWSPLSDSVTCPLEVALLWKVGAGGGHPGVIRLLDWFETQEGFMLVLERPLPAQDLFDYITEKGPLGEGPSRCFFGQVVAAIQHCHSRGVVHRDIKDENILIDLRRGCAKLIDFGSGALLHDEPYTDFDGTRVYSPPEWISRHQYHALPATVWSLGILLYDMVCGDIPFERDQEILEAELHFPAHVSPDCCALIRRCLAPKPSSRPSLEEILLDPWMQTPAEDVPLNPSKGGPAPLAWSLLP
T3 sequence (Q9UM73 19-1620 C1156Y): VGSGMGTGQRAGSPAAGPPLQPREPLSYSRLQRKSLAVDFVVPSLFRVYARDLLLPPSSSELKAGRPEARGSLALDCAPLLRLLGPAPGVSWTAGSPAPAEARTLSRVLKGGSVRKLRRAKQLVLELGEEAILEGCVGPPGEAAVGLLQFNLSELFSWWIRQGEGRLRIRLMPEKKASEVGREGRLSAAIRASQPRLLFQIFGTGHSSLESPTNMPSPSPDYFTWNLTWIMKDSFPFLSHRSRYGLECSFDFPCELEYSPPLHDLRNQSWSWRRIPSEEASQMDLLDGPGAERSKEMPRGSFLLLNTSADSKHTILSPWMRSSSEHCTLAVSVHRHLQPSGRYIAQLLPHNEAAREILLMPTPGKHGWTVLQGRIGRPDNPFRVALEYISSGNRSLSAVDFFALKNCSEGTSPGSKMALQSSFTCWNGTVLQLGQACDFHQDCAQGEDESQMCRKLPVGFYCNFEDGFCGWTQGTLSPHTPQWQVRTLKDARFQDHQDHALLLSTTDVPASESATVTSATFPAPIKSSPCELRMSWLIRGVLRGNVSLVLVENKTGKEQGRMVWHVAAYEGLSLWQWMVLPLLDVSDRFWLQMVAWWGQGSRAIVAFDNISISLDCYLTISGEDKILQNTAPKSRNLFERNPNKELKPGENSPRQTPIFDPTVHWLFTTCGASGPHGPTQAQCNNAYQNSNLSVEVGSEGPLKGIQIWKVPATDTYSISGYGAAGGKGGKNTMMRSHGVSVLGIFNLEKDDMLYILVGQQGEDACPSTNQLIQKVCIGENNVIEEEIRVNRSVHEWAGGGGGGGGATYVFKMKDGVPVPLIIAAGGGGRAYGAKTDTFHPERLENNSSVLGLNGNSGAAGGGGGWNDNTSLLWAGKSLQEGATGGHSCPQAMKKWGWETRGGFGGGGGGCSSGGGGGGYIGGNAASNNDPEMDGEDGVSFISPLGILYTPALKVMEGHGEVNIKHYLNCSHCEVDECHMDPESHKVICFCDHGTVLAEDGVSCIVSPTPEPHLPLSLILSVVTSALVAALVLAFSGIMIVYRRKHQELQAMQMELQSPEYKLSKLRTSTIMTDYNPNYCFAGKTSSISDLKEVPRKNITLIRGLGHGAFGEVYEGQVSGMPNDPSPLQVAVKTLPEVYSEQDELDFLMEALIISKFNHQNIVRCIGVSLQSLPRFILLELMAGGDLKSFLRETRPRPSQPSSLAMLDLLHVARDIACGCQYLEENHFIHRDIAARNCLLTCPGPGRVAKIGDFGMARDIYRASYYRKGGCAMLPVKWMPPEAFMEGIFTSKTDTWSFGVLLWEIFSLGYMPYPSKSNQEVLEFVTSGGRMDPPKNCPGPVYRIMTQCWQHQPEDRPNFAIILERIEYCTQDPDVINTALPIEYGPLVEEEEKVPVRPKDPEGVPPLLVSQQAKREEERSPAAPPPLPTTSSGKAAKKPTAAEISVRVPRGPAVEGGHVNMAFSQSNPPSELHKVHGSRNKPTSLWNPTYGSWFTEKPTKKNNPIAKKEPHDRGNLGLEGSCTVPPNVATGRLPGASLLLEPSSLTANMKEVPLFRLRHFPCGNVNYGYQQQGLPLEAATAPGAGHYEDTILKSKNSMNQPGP
T23 sequence (P51957 whole entry): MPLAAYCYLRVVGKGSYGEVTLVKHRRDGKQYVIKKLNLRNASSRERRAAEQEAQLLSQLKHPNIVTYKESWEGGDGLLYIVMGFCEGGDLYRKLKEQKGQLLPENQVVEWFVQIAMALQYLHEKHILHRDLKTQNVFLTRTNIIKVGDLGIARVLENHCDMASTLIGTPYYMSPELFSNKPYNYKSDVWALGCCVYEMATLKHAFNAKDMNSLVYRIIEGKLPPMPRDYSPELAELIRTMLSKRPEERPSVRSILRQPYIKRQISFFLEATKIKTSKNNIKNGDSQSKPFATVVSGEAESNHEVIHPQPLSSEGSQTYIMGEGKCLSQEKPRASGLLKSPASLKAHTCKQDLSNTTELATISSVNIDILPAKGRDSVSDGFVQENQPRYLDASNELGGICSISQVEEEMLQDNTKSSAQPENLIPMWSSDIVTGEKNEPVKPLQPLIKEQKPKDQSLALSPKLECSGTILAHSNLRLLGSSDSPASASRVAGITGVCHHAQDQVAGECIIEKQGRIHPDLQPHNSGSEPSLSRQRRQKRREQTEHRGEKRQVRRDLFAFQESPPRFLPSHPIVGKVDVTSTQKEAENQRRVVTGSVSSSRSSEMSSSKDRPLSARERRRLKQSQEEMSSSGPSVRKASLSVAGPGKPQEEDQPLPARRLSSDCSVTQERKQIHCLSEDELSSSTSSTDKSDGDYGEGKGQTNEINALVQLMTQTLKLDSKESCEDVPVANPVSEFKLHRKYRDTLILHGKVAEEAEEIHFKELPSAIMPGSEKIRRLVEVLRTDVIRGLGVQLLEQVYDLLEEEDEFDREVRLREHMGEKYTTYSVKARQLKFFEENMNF
T15 sequence (Q15375 28-998): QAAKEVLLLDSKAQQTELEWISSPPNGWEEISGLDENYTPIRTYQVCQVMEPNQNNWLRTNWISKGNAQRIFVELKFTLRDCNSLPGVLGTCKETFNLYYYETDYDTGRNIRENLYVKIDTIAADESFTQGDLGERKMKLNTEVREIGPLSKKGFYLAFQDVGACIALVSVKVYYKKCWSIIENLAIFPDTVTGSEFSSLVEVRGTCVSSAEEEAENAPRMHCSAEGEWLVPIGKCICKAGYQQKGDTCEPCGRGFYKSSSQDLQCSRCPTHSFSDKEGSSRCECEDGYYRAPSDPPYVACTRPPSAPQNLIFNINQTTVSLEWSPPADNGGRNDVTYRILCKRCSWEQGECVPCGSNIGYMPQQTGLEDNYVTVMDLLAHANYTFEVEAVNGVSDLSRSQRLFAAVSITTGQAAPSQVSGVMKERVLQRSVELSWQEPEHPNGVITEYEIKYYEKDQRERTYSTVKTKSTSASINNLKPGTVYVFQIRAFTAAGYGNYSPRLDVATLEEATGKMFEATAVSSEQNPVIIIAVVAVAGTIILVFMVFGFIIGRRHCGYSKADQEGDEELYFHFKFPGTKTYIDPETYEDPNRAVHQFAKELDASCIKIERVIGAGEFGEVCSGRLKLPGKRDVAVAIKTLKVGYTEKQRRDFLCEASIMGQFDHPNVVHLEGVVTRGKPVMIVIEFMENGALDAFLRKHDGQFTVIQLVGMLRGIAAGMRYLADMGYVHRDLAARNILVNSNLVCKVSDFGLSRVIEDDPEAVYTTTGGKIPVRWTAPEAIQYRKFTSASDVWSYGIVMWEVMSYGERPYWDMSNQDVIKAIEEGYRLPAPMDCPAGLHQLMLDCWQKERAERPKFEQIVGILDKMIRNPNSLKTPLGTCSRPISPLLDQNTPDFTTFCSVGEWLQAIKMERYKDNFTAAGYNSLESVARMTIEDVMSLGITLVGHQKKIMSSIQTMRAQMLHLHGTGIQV
T2 sequence (P31751 whole entry): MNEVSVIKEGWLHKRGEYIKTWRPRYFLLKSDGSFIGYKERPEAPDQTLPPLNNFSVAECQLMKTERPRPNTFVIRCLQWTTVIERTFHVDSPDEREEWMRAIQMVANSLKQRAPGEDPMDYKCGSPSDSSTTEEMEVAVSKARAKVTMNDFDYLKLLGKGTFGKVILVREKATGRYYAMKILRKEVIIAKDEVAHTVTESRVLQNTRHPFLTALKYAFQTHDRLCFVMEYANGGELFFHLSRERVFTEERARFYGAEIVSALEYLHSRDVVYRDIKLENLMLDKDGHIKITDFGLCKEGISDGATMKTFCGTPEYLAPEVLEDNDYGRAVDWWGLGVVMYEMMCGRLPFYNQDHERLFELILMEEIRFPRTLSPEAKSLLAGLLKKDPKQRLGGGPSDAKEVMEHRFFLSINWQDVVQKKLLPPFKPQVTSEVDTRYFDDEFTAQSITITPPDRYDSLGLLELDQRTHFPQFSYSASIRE

CN(C)C(=O)c1ccc(N2CCCN(c3ccnc4sc(C(N)=O)c(N)c34)CC2)cc1 [15u, 3-amino-4-(4-(4-(dimethylcarbamoyl)phenyl)-1,4-diazepan-1-yl)thieno[2,3-b]pyridine-2-carboxamide]
% Ctrl [1]: 97 % Ctrl
% Ctrl (ABL2): 85 % Ctrl
% Ctrl (AKT2): 86 % Ctrl
% Ctrl (ALK(C1156Y)): 100 % Ctrl
% Ctrl (ASK2): 90 % Ctrl
% Ctrl (CDC2L1): 63 % Ctrl
% Ctrl (CHEK1): 94 % Ctrl
% Ctrl (CLK3): 100 % Ctrl
% Ctrl (CSNK1A1L): 67 % Ctrl
% Ctrl (CSNK1E): 25 % Ctrl
% Ctrl (DCAMKL1): 100 % Ctrl
% Ctrl (DRAK2): 100 % Ctrl
% Ctrl (EGFR): 100 % Ctrl
% Ctrl (EGFR(L861Q)): 78 % Ctrl
% Ctrl (EPHA4): 100 % Ctrl
% Ctrl (EPHA7): 92 % Ctrl
% Ctrl (FLT3(K663Q)): 96 % Ctrl
% Ctrl (GCN2(Kin.Dom.2, S808G)): 73 % Ctrl
% Ctrl (KIT(V559D, T670I)): 100 % Ctrl
% Ctrl (LRRK2(G2019S)): 90 % Ctrl
% Ctrl (MAPKAPK2): 91 % Ctrl
% Ctrl (MARK2): 100 % Ctrl
% Ctrl (MERTK): 89 % Ctrl
% Ctrl (MYLK4): 100 % Ctrl
% Ctrl (NEK10): 93 % Ctrl
% Ctrl (NEK4): 100 % Ctrl
% Ctrl (p38-beta): 100 % Ctrl
% Ctrl (PIK3CA(Q546K)): 66 % Ctrl
% Ctrl (PIM2): 85 % Ctrl
% Ctrl (PKMYT1): 91 % Ctrl
% Ctrl [2]: 100 % Ctrl
% Ctrl (TLK1): 97 % Ctrl
% Ctrl (TNK1): 100 % Ctrl
% Ctrl (TYRO3): 100 % Ctrl

[2H]C([2H])([2H])N(C(=O)c1ccc(N2CCCN(c3ccnc4sc(C(N)=O)c(N)c34)CC2)cc1)C([2H])([2H])[2H] [15u_D6, 3-amino-4-(4-(4-(bis(methyl-d3)carbamoyl)phenyl)-1,4-diazepan-1-yl)thieno[2,3-b]pyridine-2-carboxamide]
% Ctrl [1]: 82 % Ctrl
% Ctrl (ABL2): 91 % Ctrl
% Ctrl (AKT2): 99 % Ctrl
% Ctrl (ALK(C1156Y)): 78 % Ctrl
% Ctrl (ASK2): 88 % Ctrl
% Ctrl (CDC2L1): 100 % Ctrl
% Ctrl (CHEK1): 100 % Ctrl
% Ctrl (CLK3): 95 % Ctrl
% Ctrl (CSNK1A1L): 37 % Ctrl
% Ctrl (CSNK1E): 12 % Ctrl
% Ctrl (DCAMKL1): 89 % Ctrl
% Ctrl (DRAK2): 87 % Ctrl
% Ctrl (EGFR): 87 % Ctrl
% Ctrl (EGFR(L861Q)): 100 % Ctrl
% Ctrl (EPHA4): 100 % Ctrl
% Ctrl (EPHA7): 81 % Ctrl
% Ctrl (FLT3(K663Q)): 91 % Ctrl
% Ctrl (GCN2(Kin.Dom.2, S808G)): 88 % Ctrl
% Ctrl (KIT(V559D, T670I)): 96 % Ctrl
% Ctrl (LRRK2(G2019S)): 76 % Ctrl
% Ctrl (MAPKAPK2): 99 % Ctrl
% Ctrl (MARK2): 96 % Ctrl
% Ctrl (MERTK): 100 % Ctrl
% Ctrl (MYLK4): 94 % Ctrl
% Ctrl (NEK10): 61 % Ctrl
% Ctrl (NEK4): 95 % Ctrl
% Ctrl (p38-beta): 97 % Ctrl
% Ctrl (PIK3CA(Q546K)): 72 % Ctrl
% Ctrl (PIM2): 89 % Ctrl
% Ctrl (PKMYT1): 94 % Ctrl
% Ctrl [2]: 74 % Ctrl
% Ctrl (TLK1): 85 % Ctrl
% Ctrl (TNK1): 100 % Ctrl
% Ctrl (TYRO3): 100 % Ctrl
